The results in this text go back to patent publication US9156811B2 (priority 2008, dated 2015).

Molecules are shown by their SMILES. Read-outs that look alike come from different tables or passages of the source.

Assay [1] concerns the target T. brucei N-myristoyl transferase (Trypanosoma brucei brucei (strain 927/4 GUTat10.1), UniProt Q388H8). The assay can be described thus: biochemical. It counts as biochemical.
In assay [2] the target is human NMT-1 (Homo sapiens (Human), UniProt P30419). The assay can be described thus: NMT enzyme inhibition scintillation proximity assay, human NMT-1. Format: biochemical. The conditions noted are these: HuNMT-1. In general terms: In a scintillation proximity assay essentially only radioactivity close to the scintillant gives light.
The test system of assay [3] is Trypanosome (T. brucei brucei). The assay can be described thus: In-vitro antitrypanosomal efficacy assay (cell growth, resazurin). Format: cell-based. A general note: Alamar Blue is a resazurin reagent that responds to reducing activity.
Experimental: To column 12, 200 μl media was added to provide a no cells control. Plates were then incubated at 37° C. in an atmosphere of 5% CO2 for 69 hours, before the addition of 20 μl of 500 μM rezasurin solution, and a further incubation period of 4 hours. […] Concentration effect curves were fitted using non-linear regression using XLFit 4.2 and EC50 values determined.
The mark [4] stands for this setting: value with no enzyme tag in the cell, taken as T. brucei NMT, read-out: IC50 (μM) NMT Enzyme.
Setting [5] is: T. brucei NMT, value without parentheses, read-out: IC50 (μM) NMT Enzyme (T. brucei NMT).
Where [6] appears, read: T. brucei brucei, blood stream form, variant 221.

Chain of T. brucei N-myristoyl transferase (Q388H8 1-446): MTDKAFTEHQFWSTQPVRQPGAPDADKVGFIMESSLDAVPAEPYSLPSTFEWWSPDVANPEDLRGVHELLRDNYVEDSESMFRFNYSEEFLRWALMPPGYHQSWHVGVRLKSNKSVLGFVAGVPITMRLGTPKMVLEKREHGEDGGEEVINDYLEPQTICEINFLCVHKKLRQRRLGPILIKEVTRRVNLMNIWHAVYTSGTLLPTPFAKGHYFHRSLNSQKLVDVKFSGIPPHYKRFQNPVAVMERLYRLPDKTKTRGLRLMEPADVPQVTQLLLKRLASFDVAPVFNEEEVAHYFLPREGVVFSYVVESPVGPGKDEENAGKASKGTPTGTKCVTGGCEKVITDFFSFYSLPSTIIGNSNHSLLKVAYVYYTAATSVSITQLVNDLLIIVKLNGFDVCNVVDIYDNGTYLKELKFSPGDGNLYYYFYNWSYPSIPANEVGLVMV
Chain of human NMT-1 (P30419 whole entry): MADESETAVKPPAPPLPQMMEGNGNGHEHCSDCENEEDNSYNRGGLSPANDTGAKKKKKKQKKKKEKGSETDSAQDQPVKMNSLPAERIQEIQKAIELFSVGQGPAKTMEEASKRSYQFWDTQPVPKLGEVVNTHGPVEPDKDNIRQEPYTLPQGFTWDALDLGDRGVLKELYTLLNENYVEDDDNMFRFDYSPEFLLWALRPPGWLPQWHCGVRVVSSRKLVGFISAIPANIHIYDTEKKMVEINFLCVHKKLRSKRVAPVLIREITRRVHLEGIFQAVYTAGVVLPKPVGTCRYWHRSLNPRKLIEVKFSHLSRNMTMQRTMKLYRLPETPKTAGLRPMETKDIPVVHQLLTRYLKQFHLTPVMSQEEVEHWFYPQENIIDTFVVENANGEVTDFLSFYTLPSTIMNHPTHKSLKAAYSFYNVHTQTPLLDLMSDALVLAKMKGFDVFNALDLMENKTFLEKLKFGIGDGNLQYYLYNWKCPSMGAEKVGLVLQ

The IC50 is the concentration that gives 50% inhibition. For the compound `Cc1nn(C)cc1N[S+](=O)([O-])c1ccc(Br)cc1` [DDD88320], the IC50 is 44.1 µM in assay [1] (setting [4]) and more than 100 µM in assay [2]. For the same compound, in assay [3] (T. brucei cell growth), the “ED50 (μM) T. brucei” value was more than 10 µM.

For the compound `Cn1cc(N[S+](=O)([O-])c2ccc(Br)cc2)cn1` [DDD88321], the IC50 in assay [1] (setting [4]) and in assay [2] was more than 100 µM throughout. The “ED50 (μM) T. brucei” value in assay [3] (T. brucei cell growth) was more than 10 µM.

`Cc1ccncc1N[S+](=O)([O-])c1c(Cl)cc(-c2ccnc(N3CCNCC3)c2)cc1Cl` [DDD88322]: the half-maximal inhibitory concentration (IC50) worked out at 0.182 µM in assay [1] (setting [4]) and 1.5 µM in assay [2]. The “ED50 (μM) T. brucei” value in assay [3] (T. brucei cell growth) turned out to be 1.93 µM.

Turning to `Cc1nn(C)cc1N[S+](=O)([O-])c1c(Cl)cc(Br)cc1Cl` [DDD88324], the IC50 in assay [1] (setting [4]) was 75.4 µM; in assay [2], 3.36 µM. In addition, in assay [3] (T. brucei cell growth), the “ED50 (μM) T. brucei” value is more than 10 µM.

Consider `Cn1cc(N[S+](=O)([O-])c2c(Cl)cc(Br)cc2Cl)cn1` [DDD88325], for which the IC50 in assay [1] (setting [4]) and in assay [2] was more than 100 µM throughout. Further, the “ED50 (μM) T. brucei” value in assay [3] (T. brucei cell growth) was more than 10 µM.

Consider `Cc1c(N[S+](=O)([O-])c2ccc(Br)cc2)cnn1C` [DDD88326], for which the 50% inhibitory concentration (IC50) in assay [1] (setting [4]) and in assay [2] was more than 100 µM each time. Further, the “ED50 (μM) T. brucei” value in assay [3] (T. brucei cell growth) was more than 10 µM.

Take `Cc1nn(C)c(C)c1N[S+](=O)([O-])c1ccc2nc(NC3CCNCC3)ccc2c1` [DDD88523]: the IC50 was 0.61 µM in assay [1] (setting [4]) and 6.3 µM in assay [2]. Moreover, in assay [3] (T. brucei cell growth), the “ED50 (μM) T. brucei” value is more than 1 µM.

Turning to `CCCN(CCC)Cc1cccc(-c2cc(Cl)c([S+](=O)([O-])N(C)c3c(C)nn(C)c3C)c(Cl)c2)c1` [DDD88636], the IC50 was found to be 0.92 µM in assay [1] (setting [4]) and 3.7 µM in assay [2]. The “ED50 (μM) T. brucei” value in assay [3] (T. brucei cell growth) was found to be 1.89 µM.

With `Cc1nn(C)c(C)c1N[S+](=O)([O-])c1cccc(CCCN2CCN(C)CC2)c1` [DDD88640], the IC50 in assay [1] (setting [4]) and in assay [2] was more than 1 µM throughout. In addition, the “ED50 (μM) T. brucei” value in assay [3] (T. brucei cell growth) turned out to be 18.7 µM.

For the compound `Cc1nn(C)c(C)c1N(C)[S+](=O)([O-])c1c(Cl)cc(-c2cccc(CNC3CCCCC3)c2)cc1Cl` [DDD88642], the IC50 is 0.39 µM in assay [1] (setting [4]) and 4.48 µM in assay [2]. Besides, the “ED50 (μM) T. brucei” value in assay [3] (T. brucei cell growth) worked out at 0.89 µM.

For the compound `Cc1c(N[S+](=O)([O-])c2ccc(-c3cccc(CN(C)C)c3)c(Cl)c2)c(CC(C)C)nn1C` [DDD99823], in assay [1] (setting [5]), the IC50 was 0.006 µM. Also, in assay [3] (setting [6]), the “ED50 (μM) T. brucei” value worked out at 0.041 µM.

Consider `Cc1c(N[S+](=O)([O-])c2ccc(-c3cc(CN(C)C)ccc3F)cc2)c(CC(C)C)nn1C` [DDD99827], for which, in assay [1] (setting [5]), the half-inhibitory concentration (IC50) worked out at 0.007 µM. For the same compound, in assay [3] (setting [6]), the “ED50 (μM) T. brucei” value was determined as 0.019 µM.

Regarding `Cc1c(N[S+](=O)([O-])c2ccc(-c3cccc(CC4CCNCC4)c3)cc2)c(CC(C)C)nn1C` [DDD100094], the IC50 in assay [1] (setting [5]) stood at 0.003 µM. Besides, the “ED50 (μM) T. brucei” value in assay [3] (setting [6]) was found to be 0.008 µM.

Turning to `CCNCc1cccc(-c2ccc([S+](=O)([O-])Nc3c(CC(C)C)nn(C)c3C)cc2)c1` [DDD100095], the IC50 in assay [1] (setting [5]) amounted to 0.005 µM. Also, the “ED50 (μM) T. brucei” value in assay [3] (setting [6]) came to 0.055 µM.

With `Cc1c(N[S+](=O)([O-])c2ccc(CCCCC3CCNCC3)cc2)c(CC(C)C)nn1C` [DDD100158], the IC50 in assay [1] (setting [5]) was determined as 0.006 µM. For the same compound, the “ED50 (μM) T. brucei” value in assay [3] (setting [6]) came to 0.048 µM.

`Cc1c(N[S+](=O)([O-])c2ccc(CCCCC3CCN(C)CC3)cc2)c(CC(C)C)nn1C` [DDD100162]: the IC50 in assay [1] (setting [5]) stood at 0.01 µM. In addition, the “ED50 (μM) T. brucei” value in assay [3] (setting [6]) was determined as 0.093 µM.

As for `Cc1c(N[S+](=O)([O-])c2ccc(CCCOC3CCN(C)CC3)cc2)c(CC(C)C)nn1C` [DDD100168], the IC50 in assay [1] (setting [5]) is 0.009 µM. In addition, the “ED50 (μM) T. brucei” value in assay [3] (setting [6]) came to 0.110 µM.

For `COCCNCc1cccc(-c2ccc([S+](=O)([O-])Nc3c(CC(C)C)nn(C)c3C)cc2)c1` [DDD100797], the concentration for half-maximal inhibition (IC50) in assay [1] (setting [5]) is 0.023 µM. Also, in assay [3] (setting [6]), the “ED50 (μM) T. brucei” value turned out to be 0.492 µM.

For `CCCNCc1cccc(-c2ccc([S+](=O)([O-])Nc3c(CC(C)C)nn(C)c3C)cc2)c1` [DDD100800], in assay [1] (setting [5]), the IC50 was found to be 0.006 µM. For the same compound, the “ED50 (μM) T. brucei” value in assay [3] (setting [6]) was determined as 0.052 µM.
